Experimental data reported in patent US12428406B2 (PMV Pharmaceuticals, Inc., priority 2019, dated 2025).

Biological target: T1, p53 Y220C (Homo sapiens, UniProt P04637, Y220C)
T1 construct: The recombinant protein was a truncation mutant containing only amino acids 94-312 of p53; made in house; host or cells: E. coli
Experiment: In vitro DNA binding activity assay (HTRF / TR-FRET): stabilization of p53 Y220C and increase of its DNA binding activity
Assay type: biochemical
Conditions: recombinant His-tagged p53 Y220C DNA binding domain (aa 94-312), biotin-labeled consensus DNA, incubated at 27° C. or 29° C. for 60 min
Outline: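 Test compounds, diluted 3-fold in DMSO from 4.5 mM stocks, were incubated with bacterially expressed His-tagged p53 Y220C at room temperature for 15 min, and after a further step for 20 min. DNA binding was detected by time-resolved FRET between APC and europium labels. SC150 marks the concentration increasing binding by 50%.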

T1 sequence (P04637 94-312, change not shown): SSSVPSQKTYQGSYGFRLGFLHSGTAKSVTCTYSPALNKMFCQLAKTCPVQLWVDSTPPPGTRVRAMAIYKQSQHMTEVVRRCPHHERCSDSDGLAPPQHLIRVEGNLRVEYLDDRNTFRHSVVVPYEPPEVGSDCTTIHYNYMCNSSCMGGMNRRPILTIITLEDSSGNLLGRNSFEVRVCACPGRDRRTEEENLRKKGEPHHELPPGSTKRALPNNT

SC150 (concentration of the compound required to increase the DNA binding activity by 50%)	SMILES
+ (+ = 0 μM ≤ SC150 < 0.05 μM)	CCS(=O)(=O)c1ccc(NCC#Cc2cc3c(N[C@H]4CC[C@H](N(C)C)CC4)cccc3n2CC(F)(F)F)c(OC)c1 [Compound 119A, (1R,4R)—N^4-[2-(3-{[4-(ethanesulfonyl)-2-methoxyphenyl]amino}prop-1-yn-1-yl)-1-(2,2,2-trifluoroethyl)-1H-indol-4-yl]-N^1,N^1-dimethylcyclohexane-1,4-diamine]
+ (+ = 0 μM ≤ SC150 < 0.05 μM)	CCS(=O)(=O)c1ccc(NCC#Cc2cc3c(N[C@H]4CC[C@@H](N(C)C)CC4)cccc3n2CC(F)(F)F)c(OC)c1 [Compound 120A, (1S,4S)—N^4-[2-(3-{[4-(ethanesulfonyl)-2-methoxyphenyl]amino}prop-1-yn-1-yl)-1-(2,2,2-trifluoroethyl)-1H-indol-4-yl]-N^1,N^1-dimethylcyclohexane-1,4-diamine]
+ (+ = 0 μM ≤ SC150 < 0.05 μM)	COc1cc(C(C)(C)C#N)ccc1NCC#Cc1cc2c(N[C@H]3CC[C@H](N(C)C)CC3)cccc2n1CC(F)(F)F [Compound 121A, 2-(3-methoxy-4-{[3-(4-{[(1R,4R)-4-(dimethylamino)cyclohexyl]amino}-1-(2,2,2-trifluoroethyl)-1H-indol-2-yl)prop-2-yn-1-yl]amino}phenyl)-2-methylpropanenitrile]
+ (+ = 0 μM ≤ SC150 < 0.05 μM)	COc1cc(S(=O)(=O)N(C)C)ccc1NCC#Cc1cc2c(N[C@H]3CC[C@H](N(C)C)CC3)cccc2n1CC(F)(F)F [Compound 127A, 3-methoxy-N,N-dimethyl-4-{[3-(4-{[(1R,4R)-4-(dimethylamino)cyclohexyl]amino}-1-(2,2,2-trifluoroethyl)-1H-indol-2-yl)prop-2-yn-1-yl]amino}benzene-1-sulfonamide]
+ (+ = 0 μM ≤ SC150 < 0.05 μM)	COc1cc(Cl)ccc1NCC#Cc1cc2c(N[C@H]3CC[C@H](N(C)C)CC3)cccc2n1CC(F)(F)F [Compound 130A, (1R,4R)—N^4-(2-{3-[(4-chloro-2-methoxyphenyl)amino]prop-1-yn-1-yl}-1-(2,2,2-trifluoroethyl)-1H-indol-4-yl)-N^1,N^1-dimethylcyclohexane-1,4-diamine]
+ (+ = 0 μM ≤ SC150 < 0.05 μM)	COc1cc(C(F)(F)F)ccc1NCC#Cc1cc2c(N[C@H]3CC[C@H](N(C)C)CC3)cccc2n1CC(F)(F)F [Compound 134A, (1R,4R)—N^4-[2-(3-{[2-methoxy-4-(trifluoromethyl)phenyl]amino}prop-1-yn-1-yl)-1-(2,2,2-trifluoroethyl)-1H-indol-4-yl]-N^1,N^1-dimethylcyclohexane-1,4-diamine]
+++ (+++ = 0.1 μM ≤ SC150 < 0.2 μM)	CN(C)[C@H]1CC[C@@H](Nc2cccc3c2cc(C#CCNc2ccc(S(C)(=O)=O)cc2C(F)(F)F)n3CC(F)(F)F)CC1 [Compound 138A, (1S,4S)-N^4-[2-(3-{[4-methanesulfonyl-2-(trifluoromethyl)phenyl]amino}prop-1-yn-1-yl)-1-(2,2,2-trifluoroethyl)-1H-indol-4-yl]-N^1,N^1-dimethylcyclohexane-1,4-diamine]
+ (+ = 0 μM ≤ SC150 < 0.05 μM)	CN(C)[C@H]1CC[C@H](Nc2cccc3c2cc(C#CCNc2ccc(S(C)(=O)=O)cc2C(F)(F)F)n3CC(F)(F)F)CC1 [Compound 139A, (1R,4R)-N^4-[2-(3-{[4-methanesulfonyl-2-(trifluoromethyl)phenyl]amino}prop-1-yn-1-yl)-1-(2,2,2-trifluoroethyl)-1H-indol-4-yl]-N^1,N^1-dimethylcyclohexane-1,4-diamine]
+ (+ = 0 μM ≤ SC150 < 0.05 μM)	CN(C)[C@H]1CC[C@H](Nc2cccc3c2cc(C#CCNc2ccc(S(C)(=O)=O)cc2OC(F)(F)F)n3CC(F)(F)F)CC1 [Compound 142A]

More lines, now with the values behind:

SMILES	SC150 (concentration of the compound required to increase the DNA binding activity by 50%)
CN(C)c1cc(S(C)(=O)=O)ccc1OCC#Cc1cc2c(N[C@H]3CC[C@@H](N(C)C)CC3)cccc2n1CC(F)(F)F [Compound 111A, (1S,4S)-N^4-(2-{3-[2-(dimethylamino)-4-methanesulfonyl-phenoxy]prop-1-yn-1-yl}-1-(2,2,2-trifluoroethyl)-1H-indol-4-yl)-N^1,N^1-dimethylcyclohexane-1,4-diamine]	++++ (++++ = 0.2 μM ≤ SC150 < 1 μM)
CN(C)c1cc(S(C)(=O)=O)ccc1OCC#Cc1cc2c(N[C@H]3CC[C@H](N(C)C)CC3)cccc2n1CC(F)(F)F [Compound 112A, (1R,4R)-N^4-(2-{3-[2-(dimethylamino)-4-methanesulfonyl-phenoxy]prop-1-yn-1-yl}-1-(2,2,2-trifluoroethyl)-1H-indol-4-yl)-N^1,N^1-dimethylcyclohexane-1,4-diamine]	+++ (+++ = 0.1 μM ≤ SC150 < 0.2 μM)
CNC(=O)c1ccc(NCC#Cc2cc3c(N[C@H]4CC[C@H](N(C)C)CC4)cccc3n2CC(F)(F)F)c(OCC#N)c1 [Compound 113A, 3-(cyanomethoxy)-N-methyl-4-{[3-(4-{[(1R,4R)-4-(dimethyl-amino)cyclohexyl]amino}-1-(2,2,2-trifluoro-ethyl)-1H-indol-2-yl)prop-2-yn-1-yl]amino}benzamide]	+ (+ = 0 μM ≤ SC150 < 0.05 μM)
CNC(=O)c1ccc(NCC#Cc2cc3c(N[C@H]4CC[C@H](N(C)C)CC4)cccc3n2CC(F)(F)F)c(OCCC#N)c1 [Compound 114A, 3-(2-cyanoethoxy)-N-methyl-4-{[3-(4-{[(1R,4R)-4-(dimethyl-amino)cyclohexyl]amino}-1-(2,2,2-trifluoro-ethyl)-1H-indol-2-yl)prop-2-yn-1-yl]amino}benzamide]	+ (+ = 0 μM ≤ SC150 < 0.05 μM)
CC(=O)Nc1cc(S(C)(=O)=O)ccc1OCC#Cc1cc2c(N[C@H]3CC[C@H](N(C)C)CC3)cccc2n1CC(F)(F)F [Compound 115A, N-(5-methanesulfonyl-2-{[3-(4-{[(1R,4R)-4-(dimethylamino)cyclohexyl]amino}-1-(2,2,2-trifluoro-ethyl)-1H-indol-2-yl)prop-2-yn-1-yl]oxy}phenyl)acetamide]	++ (++ = 0.05 μM ≤ SC150 < 0.1 μM)
CN(C)[C@H]1CC[C@H](Nc2cccc3c2cc(C#CCNc2ccc(S(C)(=O)=O)cc2OCF)n3CC(F)(F)F)CC1 [Compound 117A, (1R,4R)—N^1-(2-(3-((2-(fluoromethoxy)-4-(methylsulfonyl)phenyl)amino)prop-1-yn-1-yl)-1-(2,2,2-trifluoroethyl)-1H-indol-4-yl)-N^4,N^4-dimethylcyclohexane-1,4-diamine]	+ (+ = 0 μM ≤ SC150 < 0.05 μM)
CN(C)[C@H]1CC[C@H](Nc2cccc3c2cc(C#CCNc2ccc(S(N)(=O)=O)cc2OCC#N)n3CC(F)(F)F)CC1 [Compound 123A, 3-(cyanomethoxy)-4-{[3-(4-{[(1R,4R)-4-(dimethylamino)cyclohexyl]amino}-1-(2,2,2-trifluoroethyl)-1H-indol-2-yl)prop-2-yn-1-yl]amino}benzene-1-sulfonamide]	+ (+ = 0 μM ≤ SC150 < 0.05 μM)
CN(C)[C@H]1CC[C@H](Nc2cccc3c2cc(C#CCn2c(=O)oc4cc(S(C)(=O)=O)ccc42)n3CC(F)(F)F)CC1 [Compound 125A, 3-(3-(4-(((1R,4R)-4-(dimethylamino)cyclohexyl)amino)-1-(2,2,2-trifluoroethyl)-1H-indol-2-yl)prop-2-yn-1-yl)-6-(methylsulfonyl)benzo[d]oxazol-2 (3H)-one]	++++ (++++ = 0.2 μM ≤ SC150 < 1 μM)
COc1cc(C(N)=O)c(F)cc1NCC#Cc1cc2c(N[C@H]3CC[C@H](N(C)C)CC3)cccc2n1CC(F)(F)F [Compound 132A, 4-((3-(4-(((1R,4R)-4-(dimethylamino)cyclohexyl)amino)-1-(2,2,2-trifluoroethyl)-1H-indol-2-yl)prop-2-yn-1-yl)amino)-2-fluoro-5-methoxybenzamide]	+ (+ = 0 μM ≤ SC150 < 0.05 μM)
CNC(=O)c1cc(OC)c(NCC#Cc2cc3c(N[C@H]4CC[C@H](N(C)C)CC4)cccc3n2CC(F)(F)F)cc1F [Compound 136A, 2-fluoro-5-methoxy-N-methyl-4-{[3-(4-{[(1R,4R)-4-(dimethylamino)cyclohexyl]amino}-1-(2,2,2-trifluoroethyl)-1H-indol-2-yl)prop-2-yn-1-yl]amino}benzamide]	+ (+ = 0 μM ≤ SC150 < 0.05 μM)
Cc1cc(S(C)(=O)=O)ccc1NCC#Cc1cc2c(N[C@H]3CC[C@H](N(C)C)CC3)cccc2n1CC(F)(F)F [Compound 140A]	+ (+ = 0 μM ≤ SC150 < 0.05 μM)
CCN(CC)[C@H]1CC[C@H](Nc2cccc3c2cc(C#CCNc2ccc(C(=O)NC)cc2OC)n3CC(F)(F)F)CC1 [Compound 144A, 3-methoxy-N-methyl-4-{[3-(4-([(1R,4R)-4-(diethylamino)cyclohexyl]amino}-1-(2,2,2-trifluoro-ethyl)-1H-indol-2-yl)prop-2-yn-1-yl]amino}benzamide]	+ (+ = 0 μM ≤ SC150 < 0.05 μM)
CCN(CC)[C@H]1CC[C@H](Nc2cccc3c2cc(C#CCNc2ccc(S(N)(=O)=O)cc2OC)n3CC(F)(F)F)CC1 [Compound 146A, 3-methoxy-4-{[3-(4-{[(1R,4R)-4-(diethyl-amino)cyclohexyl]amino}-1-(2,2,2-trifluoroethyl)-1H-indol-2-yl)prop-2-yn-1-yl]amino}benzene-1-sulfonamide]	+ (+ = 0 μM ≤ SC150 < 0.05 μM)
